Measured values published in patent US20190247322A1, “Active Mixture of 1,2-hexanediol and 1,2-octanediol” (Symrise AG, priority 2015, published 2019).

Tests used:
[1] = test system: Aspergillus niger; experiment: Antimicrobial activity, minimum inhibitory concentration; type: cell-based
Excerpt: (§1) Antimicrobial activity of a mixture of 1,2-hexanediol and 1,2-octanediol (1:1) was investigated compared to the individual 1,2-diols with regard to 5 prominent microorganisms:
(§2) EC Echerichia coli PA Pseudomonas aeruginosa SA Staphylococcus aureus CA Candida albicans AN Aspergillus niger
(§3) Shown are the minimum inhibitory concentrations (MICs) in percent.

[2] = test system: Pseudomonas aeruginosa; experiment: as above; type: cell-based
Excerpt: as §1, §2, §3

[3] = test system: Echerichia coli; experiment: as above; type: cell-based
Excerpt: as §1, §2, §3

[4] = test system: Staphylococcus aureus; experiment: as above; type: cell-based
Excerpt: as §1, §2, §3

[5] = test system: Candida albicans; experiment: as above; type: cell-based
Excerpt: as §1, §2, §3

[6] = water (20° dH) at 20° C., solid active agent; cited from earlier work

CCCCC(O)CO (centres unmarked) [Comparative Example C1, 1,2-hexanediol]
minimum inhibitory concentration (MIC), AN [1]: 0.63%
minimum inhibitory concentration (MIC), PA [2]: 0.63%
minimum inhibitory concentration (MIC), EC [3]: 1.25%
minimum inhibitory concentration (MIC), SA [4]: 2.50%
minimum inhibitory concentration (MIC), CA [5]: 1.25%

Nc1nc2c(ncn2COCCO)c(=O)[nH]1 [Acyclovir, 2-Amino-1,9-dihydro-9-((2-hydroxyethoxy)methyl)-6H-Purin-6-one]
solubility in water [6]: less than 5 g/L

CCCCCCC(O)CO (centres unmarked) [Comparative Example C2, 1,2-octanediol]
minimum inhibitory concentration (MIC), AN [1]: 0.16%
minimum inhibitory concentration (MIC), PA [2]: 0.63%
minimum inhibitory concentration (MIC), EC [3]: 0.63%
minimum inhibitory concentration (MIC), SA [4]: 1.25%
minimum inhibitory concentration (MIC), CA [5]: 0.31%
